Measurements taken from paper PMC2192064 (The Journal of Experimental Medicine, 1995).
Each block holds one compound with its values, some of them ahead of it. Where no end group is shown, it is not given here.

What was measured:
[1] = target: T1, purified I-Au class II molecules (Mus musculus, UniProt P06344+P14438); assay: Class II-peptide-binding inhibition assay, I-Au
T1 sequence (P14438 1-227): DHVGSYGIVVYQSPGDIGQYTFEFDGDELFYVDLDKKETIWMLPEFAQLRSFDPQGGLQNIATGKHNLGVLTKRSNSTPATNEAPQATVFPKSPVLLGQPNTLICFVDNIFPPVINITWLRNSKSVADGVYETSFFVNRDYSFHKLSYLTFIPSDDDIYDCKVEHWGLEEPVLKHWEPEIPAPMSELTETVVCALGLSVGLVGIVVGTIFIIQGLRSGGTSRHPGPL
T1 sequence (P06344 28-263): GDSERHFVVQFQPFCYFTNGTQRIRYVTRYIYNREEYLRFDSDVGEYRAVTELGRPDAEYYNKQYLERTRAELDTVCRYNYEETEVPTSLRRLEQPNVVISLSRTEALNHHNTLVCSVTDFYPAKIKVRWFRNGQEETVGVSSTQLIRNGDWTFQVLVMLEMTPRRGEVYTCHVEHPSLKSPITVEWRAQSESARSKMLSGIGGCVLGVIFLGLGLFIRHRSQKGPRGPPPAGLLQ

[2] = tested on: T cell-enriched splenic cells from 12-14-wk-old female BWF1 mice; assay: Proliferation of unprimed splenic T cells in response to peptides; format: cell-based, mouse; conditions: result in words
[3] = tested on: BWF1 mice; assay: Pathogenic potential: immunization of young BWF1 mice with peptides; format: in vivo, mouse; conditions: p34 or p84 immunization vs PBS/CFA/alum; p <0.05
[4] = target: I-Ad class II molecule (mouse); assay: radioligand binding

- IC50 [1]: 8 nM
Compound: C[C@H](NC(=O)[C@H](C)NC(=O)[C@H](Cc1c[nH]cn1)NC(=O)[C@H](C)NC(=O)[C@H](C)NC(=O)[C@H](Cc1c[nH]cn1)NC(=O)[C@H](C)NC(=O)[C@H](C)NC(=O)[C@H](Cc1c[nH]cn1)NC(=O)[C@H](C)NC(=O)[C@H](C)NC(=O)[C@H](Cc1c[nH]cn1)NC(=O)[C@H](C)NC(=O)[C@H](C)NC(=O)[C@H](Cc1c[nH]cn1)NC(=O)[C@H](C)NC(=O)[C@@H](N)Cc1ccc(O)cc1)C(=O)O [RO IV]

Compound: MNWVKQSHGKSL [p34]
- proliferative responses in naive BWF1 T cells [2]: elicit proliferative responses
- plasma creatinine levels [3]: increase in plasma creatinine levels

- IC50 [4]: 110 nM
Compound: OVA 323-336 (from UniProt P01012 324-337) (peptide)
